The experiment has as its system HSPCs bearing CH mutations. Description: Genomic analysis of CH clone expansion (change in VAF) in blood of SCLC patients randomized to carboplatin/etoposide with trilaciclib or placebo. It counts as in vivo, human. The protocol:
To evaluate the effect of trilaciclib on the expansion of CH clones in patients receiving chemotherapy, the following experiments were conducted. Blood samples obtained from a randomized, placebo-controlled trial of trilaciclib in SCLC patients receiving fist-line carboplatin and etoposide chemotherapy were sequenced pre- and post-treatment.
Blood samples were obtained from a clinical trial of SCLC patients receiving first-line carboplatin/etoposide combination chemotherapy randomized to concurrently receive the CDK4/6 inhibitor trilaciclib or placebo (FIG. 1). We performed targeted mutational analysis of genomic DNA from peripheral blood before and after five cycles of carboplatin/etoposide (˜5 months) in 59 individuals, 32 of whom received concurrent trilaciclib with each cycle of chemotherapy (FIG. 1, top row) and 27 who received placebo (FIG. 1, middle row). As a comparator group, sequential samples were obtained from 178 individuals from another longitudinal study (FIG. 1, bottom row) selected as cancer-free and matched in age and length of follow-up to the participants in the SCLC clinical trial. All samples were analyzed as described below to measure how the number of HSPCs bearing CH mutations (reflected by the variant allele frequency [VAF]) changed over time in individuals randomized to receive trilaciclib compared to placebo and to untreated healthy adults.
A custom-targeted CH panel was developed using VariantPlex (ArcherDX), an amplicon sequencing method that leverages bi-directional primers and molecular barcodes (MBCs) to enable reliable detection of extremely low VAF variants. The CH panel included exonic regions of the nine CH genes most commonly mutated in solid tumor patients (DNMT3A, TET2, ASXL1, PPM1D, TP53, CHEK2, JAK2, SRSF2, and SF3B1).
In brief, following DNA fragmentation, ligation with a universal MBC adapter was performed, tagging each DNA molecule with a unique molecular index (UMI) and allowing for unidirectional amplification of the sample using gene-specific primers. The resulting libraries were sequenced using a NovaSeq 6000 instrument. The average unique coverage per sample was 20,746×. Using tumor-normal dilution series from six AML patients, we developed a custom CH variant calling pipeline integrating three variant callers (Mutect2, Vardict, LoFreq) with post-calling filtering to remove germ line variants and artifacts. A critical feature of this pipeline is the empiric estimation of variant-specific error rates using a technical panel of normals consisting of 30 blood samples from children18.
The distribution of mutations within genes was characterized by notable enrichments for DDR genes (PPM1D, TP53, CHEK2) relative to DTA genes. For each CH mutation, the change in VAF between the first and second time points was calculated. […]

Here are results for one compound from patent US20240108625A1, “CDK4/6 INHIBITORS AS A TREATMENT FOR CLONAL HEMATOPOIESIS” (Washington University, priority 2022, published 2024).

The structures appear in SMILES notation. Entries after “also recorded” stand apart in the source; their conditions may differ.

For the compound `CN1CCN(c2ccc(Nc3ncc4cc5n(c4n3)C3(CCCCC3)CNC5=O)nc2)CC1` [trilaciclib], for the setting “SCLC patients, carboplatin/etoposide, FIG. 5”, the “growth suppression of CH clones by gene: TET2” value is reported as “largest impact”. For the same compound, the “expansion of CH mutations in the DDR pathway (TP53, CHEK2, PPM1D) following chemotherapy (change in VAF)” value (SCLC patients, concurrent with five cycles of carboplatin/etoposide (~5 months), relative to placebo group) is on record as “reduced expansion following chemotherapy; also recorded: lower expansion with chemotherapy”. Also, for the setting “SCLC patients, concurrent with five cycles of carboplatin/etoposide (~5 months), vs placebo”, the “growth of CH clones bearing mutations in epigenetic modifiers DTA (DNMT3A, TET2, ASXL1)” value is on record as “suppressed the growth of CH clones”. Besides, the “carboplatin-related clonal hematopoiesis (DDR and DTA)” value (carboplatin chemotherapy) is “inhibited carboplatin-related clonal hematopoiesis; also recorded: protects against both DDR and DTA clonal hematopoiesis”.
